This is an account of results in publication PMC7791547, “Biochemical characterization of an E. coli cell division factor FtsE shows ATPase cycles similar to the NBDs of ABC-transporters” (Bioscience Reports, 2021).

For experiment [1], the target named is T1, FtsE (FtsEEc) (Escherichia coli, UniProt P0A9R7, K41A).
T1 construct: ftsE ORF in His-pBAD18; His-tagged, soluble, expressed in E. coli C41; Ni-NTA and two SEC rounds
Description: MANT-ATP fluorescence binding. Conditions: labelled compound; 25 mM HEPES pH 7.5, 50 mM KCl, 10 mM MgCl2; Walker A mutant.

For experiment [2], the target named is T2, FtsE (FtsEEc) (Escherichia coli, UniProt P0A9R7).
T2 construct: ftsE ORF in His-pBAD18; His-tagged, soluble, expressed in E. coli C41; Ni-NTA and two SEC rounds
T2 sequence (P0A9R7 1-222): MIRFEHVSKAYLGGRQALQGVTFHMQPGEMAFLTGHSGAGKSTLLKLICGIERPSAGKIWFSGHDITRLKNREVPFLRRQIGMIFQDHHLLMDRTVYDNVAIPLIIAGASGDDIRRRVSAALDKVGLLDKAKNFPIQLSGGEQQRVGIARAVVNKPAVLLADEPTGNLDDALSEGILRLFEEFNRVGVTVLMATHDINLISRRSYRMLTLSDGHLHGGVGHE
Description: fluorescence titration, double reciprocal plot. Type of experiment: binding.

T1 sequence (P0A9R7 whole entry K41A): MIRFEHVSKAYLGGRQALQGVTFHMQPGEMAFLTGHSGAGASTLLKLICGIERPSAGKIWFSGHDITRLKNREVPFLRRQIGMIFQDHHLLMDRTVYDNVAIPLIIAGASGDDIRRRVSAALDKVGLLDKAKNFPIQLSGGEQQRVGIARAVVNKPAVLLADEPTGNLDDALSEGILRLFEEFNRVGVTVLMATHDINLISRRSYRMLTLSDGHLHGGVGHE

Regarding `CNc1ccccc1C(=O)O[C@H]1[C@@H](O)[C@H](n2cnc3c(N)ncnc32)O[C@@H]1COP(=O)(O)OP(=O)(O)OP(=O)(O)O` [MANT-ATP], the MANT-ATP fluorescence binding entry on FtsE (FtsEEc) [1] is “ATP binding affinity for FtsE^K41A, and it was found to be much lower than wildtype”. Moreover, the Kd on FtsE (FtsEEc) [2] came to 21.5 ± 2.2 nM.

For orientation: Kd means a measure of binding affinity in units of concentration. Lower therefore signals tighter binding.
